Counter-ions that a name gives are not always drawn. Bounds are passed on as bounds.

In the first test the target is human σ1 receptor (Homo sapiens, UniProt Q99720). As to the kind of experiment: biochemical. The class given is binding. On the set-up: μ and σ1 dual binding: key to the marks not given beside the values.
Chain of human σ1 receptor (Q99720 whole entry): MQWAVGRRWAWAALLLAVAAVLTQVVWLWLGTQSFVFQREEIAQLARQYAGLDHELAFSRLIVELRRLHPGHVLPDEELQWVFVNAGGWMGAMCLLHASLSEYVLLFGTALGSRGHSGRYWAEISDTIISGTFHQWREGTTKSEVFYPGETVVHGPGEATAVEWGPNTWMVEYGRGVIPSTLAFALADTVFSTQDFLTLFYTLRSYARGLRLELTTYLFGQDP
Details: not given
In the case of `CC1OC2(CCN(CCc3cccs3)CC2)CN(c2ccccc2)C1=O` (stereo not drawn) [Example 53, 2-methyl-4-phenyl-9-(2-(thiophen-2-yl)ethyl)-1-oxa-4,9-diazaspiro[5.5]undecan-3-one], the Ki is under 100 nM.

`CC1OC2(CCN(CCc3ccccc3)CC2)CN(c2cccc(C(=O)N(C)C)c2)C1=O.Cl` (stereo not drawn) [Example 271, N,N-dimethyl-3-(2-methyl-3-oxo-9-phenethyl-1-oxa-4,9-diazaspiro[5.5]undecan-4-yl)benzamide hydrochloride]: the “μ and σ1 dual binding” value is given as “++”.

For `CC1CN(CCc2cccnc2)CC2(CCN(CCc3ccccc3)CC2)O1` (stereo not drawn) [Example 331, 2-methyl-9-phenethyl-4-(2-(pyridin-3-yl)ethyl)-1-oxa-4,9-diazaspiro[5.5]undecane hydrochloride], the “μ and σ1 dual binding” value is given as “++”.

Consider `CC1OC2(CCN(CC3CCOCC3)CC2)CN(c2ccccc2)C1=O.Cl` (stereo not drawn) [Example 59, 2-methyl-4-phenyl-9-((tetrahydro-2H-pyran-4-yl)methyl)-1-oxa-4,9-diazaspiro[5.5]undecan-3-one hydrchloride], for which the “μ and σ1 dual binding” value was “++”.

Take `CC1OC2(CCN(CCc3cccc(NC(N)=O)c3)CC2)CN(c2ccccc2)C1=O` (stereo not drawn) [Example 262, 1-(3-(2-(2-methyl-3-oxo-4-phenyl-1-oxa-4,9-diazaspiro[5.5]undecan-9-yl)ethyl)phenyl)urea]: the Ki was under 500 nM.

Regarding `CC1OC2(CCN(CCc3cccc(F)n3)CC2)CN(c2ccccc2F)C1=O` (stereo not drawn) [Example 89, 4-(2-fluorophenyl)-9-(2-(6-fluoropyridin-2-yl)ethyl)-2-methyl-1-oxa-4,9-diazaspiro[5.5]undecan-3-one hydrochloride], the Ki was under 500 nM.

Turning to `CN(C)C(=O)CC1OC2(CCN(CCc3ccccc3)CC2)CN(c2ccccc2)C1=O.Cl` (stereo not drawn) [Example 272, N,N-dimethyl-2-(3-oxo-9-phenethyl-4-phenyl-1-oxa-4,9-diazaspiro[5.5]undecan-2-yl)acetamide hydrochloride], the “μ and σ1 dual binding” value is “++”.

For the compound `CC1OC2(CCN(CCc3cccc(C#N)n3)CC2)CN(c2ccccc2)C1=O.Cl` (stereo not drawn) [Example 123, 6-(2-(2-methyl-3-oxo-4-phenyl-1-oxa-4,9-diazaspiro[5.5]undecan-9-yl)ethyl)picolinonitrile hydrochloride], the “μ and σ1 dual binding” value is listed as “++”.

For the compound `CC1OC2(CCN(CCc3ccccc3N)CC2)CN(c2ccccc2)C1=O` (stereo not drawn) [Example 229, 9-(2-aminophenethyl)-2-methyl-4-phenyl-1-oxa-4,9-diazaspiro[5.5]undecan-3-one], the Ki was under 100 nM.

With `COc1ccccc1CCN1CCC2(CC1)CN(c1ccccc1)CCO2.Cl` [Example 334, 9-(2-methoxyphenethyl)-4-phenyl-1-oxa-4,9-diazaspiro[5.5]undecane hydrochloride], the “μ and σ1 dual binding” value was “++”.

Compound `CC1OC2(CCN(CCn3ccc4ccccc43)CC2)CN(c2ccccc2)C1=O` (stereo not drawn) [Example 62, 9-(2-(1H-indol-1-yl)ethyl)-2-methyl-4-phenyl-1-oxa-4,9-diazaspiro[5.5]undecan-3-one hydrochloride] returned a Ki of under 100 nM.

Turning to `CCOC(=O)c1cccc(N2CC3(CCN(CCc4ccccc4)CC3)OC(C)C2=O)c1.Cl` (stereo not drawn) [Example 197, ethyl 3-(2-methyl-3-oxo-9-phenethyl-1-oxa-4,9-diazaspiro[5.5]undecan-4-yl)benzoate hydrochloride], the “μ and σ1 dual binding” value is reported as “++”.

In the case of `Cl.O=C1N(CCCO)CC2(CCN(CCc3ccccc3)CC2)OC12CC2` [Example 279, 12-(3-hydroxypropyl)-8-phenethyl-4-oxa-8,12-diazadispiro[2.1.5.3]tridecan-13-one hydrochloride], the “μ and σ1 dual binding” value is recorded as “++”.

Turning to `Cl.O=C1COC2(CCN(CCc3ccccc3)CC2)CN1Cc1nccn1Cc1ccccc1` [Example 168, 4-((1-benzyl-1H-imidazol-2-yl)methyl)-9-phenethyl-1-oxa-4,9-diazaspiro[5.5]undecan-3-one hydrochloride], the “μ and σ1 dual binding” value is on record as “++”.

Staying with this test, now noted: combined class from Ki-σ1 (human σ1 receptor, A1) and Ki-μ (human μ-opioid receptor, A2) radioligand binding.
With `COC(=O)CCN1CCC2(CC1)CN(Cc1ccccc1)C(=O)C1(CC1)O2` [Example 346, methyl 3-(12-benzyl-13-oxo-4-oxa-8,12-diazadispiro[2.1.5.3]tridecan-8-yl)propanoate], the “μ and σ1 dual binding” value was “++”.

For `Oc1ccccc1CCN1CCC2(CC1)CN(c1ccccc1)CCO2` [Example 321, 2-(2-(4-phenyl-1-oxa-4,9-diazaspiro[5.5]undecan-9-yl)ethyl)phenol], the “μ and σ1 dual binding” value is given as “++”.

Staying with this test, now noted: read-out: μ and σ1 dual binding.
In the case of `CC1OC2(CCN(CCc3ccccc3)CC2)CN(Cc2cscn2)C1=O` (stereo not drawn) [Example 164, 2-methyl-9-phenethyl-4-(thiazol-4-ylmethyl)-1-oxa-4,9-diazaspiro[5.5]undecan-3-one], the Ki was under 100 nM.

Regarding `O=C1COC2(CCN(CCc3ccccc3)CC2)CN1Cc1ncc[nH]1` [Example 284, 4-((1H-imidazol-2-yl)methyl)-9-phenethyl-1-oxa-4,9-diazaspiro[5.5]undecan-3-one hydrochloride], the Ki is over 500 nM.

On to `CC(C)=C1OC2(CCN(CCc3ccccc3)CC2)CN(c2ccccc2F)C1=O` [Example 85, 4-(2-fluorophenyl)-9-phenethyl-2-(propan-2-ylidene)-1-oxa-4,9-diazaspiro[5.5]undecan-3-one], for which the Ki was over 500 nM.

As for `CC1OC2(CCN(CCc3ccccc3F)CC2)CN(c2ncccc2C(F)(F)F)C1=O` (stereo not drawn) [Example 221, 9-(2-fluorophenethyl)-2-methyl-4-(3-(trifluoromethyl)pyridin-2-yl)-1-oxa-4,9-diazaspiro[5.5]undecan-3-one], the Ki was under 500 nM.

Consider `CC1OC2(CCN(CCc3ccc([N+](=O)[O-])cn3)CC2)CN(c2ccccc2)C1=O` (stereo not drawn) [Example 23, 2-methyl-9-(2-(5-nitropyridin-2-yl)ethyl)-4-phenyl-1-oxa-4,9-diazaspiro[5.5]undecan-3-one], for which the Ki was over 500 nM.

Turning to `CC1OC2(CCN(CCc3cccnc3[N+](=O)[O-])CC2)CN(c2cnccc2C(F)(F)F)C1=O` (stereo not drawn) [Example 43, 2-methyl-9-(2-(2-nitropyridin-3-yl)ethyl)-4-(4-(trifluoromethyl)pyridin-3-yl)-1-oxa-4,9-diazasprio[5.5]undecan-3-one], the Ki was over 500 nM.

Regarding `CC1OC2(CCN(CCc3ccccc3)CC2)CN(c2ccccc2Cl)C1=O` (stereo not drawn) [Example 193, 4-(2-chlorophenyl)-2-methyl-9-phenethyl-1-oxa-4,9-diazaspiro[5.5]undecan-3-one hydrochloride], the Ki was under 100 nM.

Regarding `COc1cccc(CN2CC3(CCN(CCc4ccccc4)CC3)OCC2=O)c1` [Example 166, 4-(3-methoxybenzyl)-9-phenethyl-1-oxa-4,9-diazaspiro[5.5]undecan-3-one hydrochloride], the Ki is under 500 nM.

For the compound `CC1OC2(CCN(CCc3ccccc3)CC2)CN(Cc2ccc(F)cc2)C1=O` (stereo not drawn) [Example 158, 4-(4-fluorobenzyl)-2-methyl-9-phenethyl-1-oxa-4,9-diazaspiro[5.5]undecan-3-one hydrochloride], the Ki is under 100 nM.

As for `CC1CN(Cc2nccn2C)CC2(CCN(CCc3ccccc3)CC2)O1` (stereo not drawn) [Example 327, 2-methyl-4-((1-methyl-1H-imidazol-2-yl)methyl)-9-phenethyl-1-oxa-4,9-diazaspiro[5.5]undecane dihydrochloride], the Ki is under 500 nM.

On to `CC1OC2(CCN(CCc3ccc(Cl)nc3)CC2)CN(c2ccccc2)C1=O` (stereo not drawn) [Example 113, 9-(2-(6-chloropyridin-3-yl)ethyl)-2-methyl-4-phenyl-1-oxa-4,9-diazaspiro[5.5]undecan-3-one], for which the Ki was over 500 nM.

On to `CC1OC2(CCN(CCc3ncccc3F)CC2)CN(c2cccnc2C(F)(F)F)C1=O` (stereo not drawn) [Example 48, 9-(2-(3-fluoropyridin-2-yl)ethyl)-2-methyl-4-(2-(trifluoromethyl)pyridin-3-yl)-1-oxa-4,9-diazaspiro[5.5]undecan-3-one], for which the Ki is over 500 nM.

`CC1OC2(CCN(CCc3ccccc3)CC2)CN(c2nccs2)C1=O` (stereo not drawn) [Example 209, 2-methyl-9-phenethyl-4-(thiazol-2-yl)-1-oxa-4,9-diazaspiro[5.5]undecan-3-one hydrochloride]: the Ki is under 500 nM.

Turning to `CC1OC2(CCN(CCc3ncccc3Cl)CC2)CN(Cc2ccc(C(F)(F)F)cn2)C1=O` (stereo not drawn) [Example 45, 9-(2-(3-chloropyridin-2-yl)ethyl)-2-methyl-4-((5-(trifluoromethyl)pyridin-2-yl)methyl)-1-oxa-4,9-diazaspiro[5.5]undecan-3-one hydrochloride], the Ki was under 100 nM.

As to `CC1OC2(CCN(CCC(=O)O)CC2)CN(c2ccccc2)C1=O` (stereo not drawn) [Example 269, 3-(2-methyl-3-oxo-4-phenyl-1-oxa-4,9-diazaspiro[5.5]undecan-9-yl)propanoic acid], the Ki is over 500 nM.

Regarding `CC1OC2(CCN(CCc3cccc(O)c3)CC2)CN(c2ccccc2F)C1=O` (stereo not drawn) [Example 298, 4-(2-fluorophenyl)-9-(3-hydroxyphenethyl)-2-methyl-1-oxa-4,9-diazaspiro[5.5]undecan-3-one], the Ki was under 100 nM.

Take `CC(=O)Nc1cccnc1CCN1CCC2(CC1)CN(c1ccccc1F)C(=O)C(C)O2` (stereo not drawn) [Example 250, N-(2-(2-(4-(2-fluorophenyl)-2-methyl-3-oxo-1-oxa-4,9-diazaspiro[5.5]undecan-9-yl)ethyl)pyridin-3-yl)acetamide]: the Ki is over 500 nM.

`O=C1COC2(CCN(CCc3ccccc3)CC2)CN1Cc1cscn1` [Example 167, 9-phenethyl-4-(thiazol-4-ylmethyl)-1-oxa-4,9-diazaspiro[5.5]undecan-3-one hydrochloride]: the Ki was under 100 nM.

For the compound `c1ccc(CCN2CCC3(CC2)CN(c2ccccc2)CCO3)cc1` [Example 317, 9-phenethyl-4-phenyl-1-oxa-4,9-diazaspiro[5.5]undecane], the Ki is under 500 nM.

Consider `CC(=O)Nc1cccc(CCN2CCC3(CC2)CN(c2ccccc2)C(=O)[C@H](C)O3)c1` [Example 244a, (S)-N-(3-(2-(2-methyl-3-oxo-4-phenyl-1-oxa-4,9-diazaspiro[5.5]undecan-9-yl)ethyl)phenyl)acetamide hydrochloride], for which the Ki was under 500 nM.

Values taken from US10703765B2 (priority 2014, dated 2020).
